For one assay, the target named is T1, RORγ-LBD (Homo sapiens, UniProt P51449).
T1 construct: made in house; host or cells: SF9 cells (baculovirus); used as diluted lysate
T1 sequence (P51449 269-508 limits assumed): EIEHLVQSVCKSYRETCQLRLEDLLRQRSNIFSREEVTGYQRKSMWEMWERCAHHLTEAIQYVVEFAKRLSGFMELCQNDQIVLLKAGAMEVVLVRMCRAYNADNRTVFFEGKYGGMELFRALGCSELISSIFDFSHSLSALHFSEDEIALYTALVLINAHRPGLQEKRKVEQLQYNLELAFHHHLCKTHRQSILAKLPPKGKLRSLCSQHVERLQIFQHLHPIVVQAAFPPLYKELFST
Briefly: RORγ-Ligand Binding Domain (LBD) TR-FRET Assay.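 For TR-FRET Assay Max Response: 665/615 nm signal ratio set to 100 without ursolic acid or test compound.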 The class given is biochemical. To be noted: for TR-FRET Assay Max Response: maximum response. The procedure, abridged:
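His-tagged RORγ-LBD from SF9 baculovirus lysate, ~3 nM final, in 50 mM Tris pH 7.0, 50 mM KCl, 1 mM EDTA, 0.1 mM DTT, 0.01% BSA. Biotinylated SRC1 LXXLL peptide at 200 nM final with 2 μM ursolic acid; TR-FRET read-out, 1% DMSO final.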
On the technique in general: TR-FRET usually uses a lanthanide donor and a delayed reading to cut background.

The target of another assay is T2, Gal4-RORγ-LBD (Homo sapiens, UniProt P51449).
T2 construct: expressed in transfected cells
T2 sequence (P51449 269-508 limits assumed): T1 sequence (P51449 269-508 limits assumed)
The assay can be described thus: Gal4-RORγ Luciferase Reporter Assay in HEK-293T Cells. To be noted: HEK-293 cells; for Gal4-RORγ Assay Max Response: maximum response. The class given is cell-based. The procedure, abridged:
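HEK-293 cells were co-transfected with Gal4-RORγ-LBD and a Gal4-luciferase reporter, then exposed overnight at 37 °C to compounds with […] ursolic acid present (0.2% DMSO). Luminescence was read with One-Glo after 10 min at RT, untreated signal was set as 100, and Max Response was taken as the upper plateau of a 4-parameter logistic fit.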

The mark [1] stands for this setting: luciferase reporter, with ursolic acid.
Where [2] appears, read: luciferase reporter, in presence of ursolic acid.

With `COC(=O)CC[C@H]1CN(S(=O)(=O)c2cccc(OC(F)F)c2)c2cc(/C=C/c3c(F)cccc3Cl)ccc2O1` [Example 89B, (S,E)-methyl 3-(6-(2-chloro-6-fluorostyryl)-4-((3-(difluoromethoxy)phenyl)sulfonyl)-3,4-dihydro-2H-benzo[b][1,4]oxazin-2-yl)propanoate], the EC50 at RORγ-LBD (RORγ-LBD TR-FRET) is < 500 nM; at Gal4-RORγ-LBD (setting [1]) it was 500 to 5000 nM.

As for `COc1cc(S(=O)(=O)N2C[C@H](CCC(C)(C)O)Oc3ccc(/C=C(\C)c4c(F)cccc4Cl)cc32)ccc1F` [Example 120, (S,E)-4-(6-(2-(2-Chloro-6-fluorophenyl)prop-1-en-1-yl)-4-((4-fluoro-3-methoxyphenyl)sulfonyl)-3,4-dihydro-2H-benzo[b][1,4]oxazin-2-yl)-2-methylbutan-2-ol], on RORγ-LBD (RORγ-LBD TR-FRET assay), the concentration giving a half-maximal response (EC50) was < 500 nM and the “TR-FRET Assay Max Response” value is “*** (a value in the range of greater than 150 to 200)”. On Gal4-RORγ-LBD (setting [2]), the EC50 is < 500 nM and the “Gal4-RORγ Assay Max Response” value was “** (a value in the range of greater than 90 to 150)”.

As to `CCOc1nn(CC)cc1S(=O)(=O)N1C[C@H](CCC(=O)OC)Oc2ccc(/C=C/c3ncccc3F)cc21` [Example 89X, (S,E)-methyl 3-(4-((3-ethoxy-1-ethyl-1H-pyrazol-4-yl)-sulfonyl)-6-(2-(3-fluoropyridin-2-yl)vinyl)-3,4-dihydro-2H-benzo[b][1,4]oxazin-2-yl)propanoate], the EC50 was 500 to 5000 nM at RORγ-LBD (RORγ-LBD TR-FRET) and > 10000 nM at Gal4-RORγ-LBD (setting [1]).

On to `COC(=O)CC[C@H]1CN(S(=O)(=O)c2cccc(OC(F)(F)F)c2)c2cc(/C=C(\C)c3c(F)cccc3Cl)ccc2O1` [Example 86T, (S,E)-methyl 3-(6-(2-(2-chloro-6-fluorophenyl)prop-1-en-1-yl)-4-((3-(trifluoromethoxy)phenyl)-sulfonyl)-3,4-dihydro-2H-benzo[b][1,4]oxazin-2-yl)propanoate], for which the EC50 on RORγ-LBD (RORγ-LBD TR-FRET) is < 500 nM; at Gal4-RORγ-LBD (setting [1]), 500 to 5000 nM.

Consider `CCOc1nn(CC)cc1S(=O)(=O)N1C[C@H](CCC(=O)OC)Oc2ccc(/C=C/c3ccsc3)cc21` [Example 89L, (S,E)-methyl 3-(4-((3-ethoxy-1-ethyl-1H-pyrazol-4-yl)sulfonyl)-6-(2-(thiophen-3-yl)vinyl)-3,4-dihydro-2H-benzo[b][1,4]oxazin-2-yl)propanoate], for which the figures for the EC50 on RORγ-LBD (RORγ-LBD TR-FRET) and on Gal4-RORγ-LBD (setting [1]) were < 500 nM and 500 to 5000 nM, respectively.

For `CCOc1ncc(C(F)(F)F)cc1S(=O)(=O)N1C[C@H](CCC(=O)OC)Oc2ccc(/C=C/c3c(Cl)cccc3OC)cc21` [Example 89FB, methyl (S,E)-3-(6-(2-chloro-6-methoxystyryl)-4-((2-ethoxy-5-(trifluoromethyl)pyridin-3-yl)sulfonyl)-3,4-dihydro-2H-benzo[b][1,4]oxazin-2-yl)propanoate], the EC50 at RORγ-LBD (RORγ-LBD TR-FRET) was < 500 nM; at Gal4-RORγ-LBD (setting [1]) it was 500 to 5000 nM.

On to `Cn1nccc1/C=C/c1ccc2c(c1)N(S(=O)(=O)c1cccc(C(F)(F)F)c1)C[C@H](CCC(=O)O)O2` [Example 89CI, (S,E)-3-(6-(2-(1-methyl-1H-pyrazol-5-yl)vinyl)-4-((3-(trifluoromethyl)phenyl)sulfonyl)-3,4-dihydro-2H-benzo[b][1,4]-oxazin-2-yl)propanoic acid], for which the EC50 on RORγ-LBD (RORγ-LBD TR-FRET) and on Gal4-RORγ-LBD (setting [1]) was > 10000 nM throughout.

For the compound `CC(C)(CC1CC(S(=O)(=O)c2cccc(C(F)(F)F)c2)c2cc(OCc3c(F)cccc3Cl)ccc2O1)C(=O)O` (stereo not shown) [Example 186E, 3-(6-((2-chloro-6-fluorobenzyl)oxy)-4-((3-(trifluoromethyl)phenyl)-sulfonyl)chroman-2-yl)-2,2-dimethylpropanoic acid], on RORγ-LBD (RORγ-LBD TR-FRET assay), the EC50 was < 500 nM and the “TR-FRET Assay Max Response” value is “** (a value in the range of greater than 90 to 150)”. On Gal4-RORγ-LBD (setting [2]), the 50% effective concentration (EC50) was in the range of 500 to 5000 nM and the “Gal4-RORγ Assay Max Response” value was “** (a value in the range of greater than 90 to 150)”.

For the compound `C/C(=C\c1ccc2c(c1)N(S(=O)(=O)c1cccc(C(F)(F)F)c1)C[C@H](CNC(=O)N1CCOCC1)O2)c1c(F)cccc1Cl` [Example 116N, (S,E)-N-((6-(2-(2-chloro-6-fluorophenyl)prop-1-en-1-yl)-4-((3-(trifluoromethyl)phenyl)sulfonyl)-3,4-dihydro-2H-benzo[b][1,4]-oxazin-2-yl)methyl)morpholine-4-carboxamide], the EC50 at RORγ-LBD (with 2 μM ursolic acid (RORγ antagonist), highest test concentration 10 μM) is < 500 nM; on Gal4-RORγ-LBD (ursolic acid present, luciferase readout), < 500 nM.

Regarding `CCn1cc(S(=O)(=O)N2C[C@H](CNC(C)=O)Oc3ccc(/C=C/c4c(F)cccc4Cl)cc32)c(Cl)n1` [Example 109D, (S,E)-N-((4-((3-chloro-1-ethyl-1H-pyrazol-4-yl)sulfonyl)-6-(2-chloro-6-fluorostyryl)-3,4-dihydro-2H-benzo[b][1,4]oxazin-2-yl)methyl)acetamide], at RORγ-LBD (RORγ-LBD TR-FRET assay), the 50% effective concentration (EC50) is < 500 nM and the “TR-FRET Assay Max Response” value is given as “*** (a value in the range of greater than 150 to 200)”. At Gal4-RORγ-LBD (setting [2]), the 50% effective concentration (EC50) is 500 to 5000 nM and the “Gal4-RORγ Assay Max Response” value was “** (a value in the range of greater than 90 to 150)”.

In the case of `CC1CCCC(=Cc2ccc3c(c2)N(S(=O)(=O)c2cc(C(F)(F)F)cnc2OCCO)C[C@H](CCC(=O)O)O3)C1` (stereo partly drawn) [Example 95U, 3-((2S)-4-((2-(2-hydroxyethoxy)-5-(trifluoromethyl)pyridin-3-yl)sulfonyl)-6-((3-methylcyclohexylidene)methyl)-3,4-dihydro-2H-benzo[b][1,4]oxazin-2-yl)propanoic acid], the EC50 on RORγ-LBD (RORγ-LBD TR-FRET) was < 500 nM; at Gal4-RORγ-LBD (setting [1]), 500 to 5000 nM.

Take `COC(=O)CC[C@H]1CN(S(=O)(=O)c2cccc(C(F)(F)F)c2)c2cc(/C=C(\C)c3ccccc3)ccc2O1` [Example 86AB, (S,E)-methyl 3-(6-(2-phenylprop-1-en-1-yl)-4-((3-(trifluoromethyl)-phenyl)sulfonyl)-3,4-dihydro-2H-benzo[b][1,4]oxazin-2-yl)propanoate]: the results for the EC50 on RORγ-LBD (RORγ-LBD TR-FRET) and on Gal4-RORγ-LBD (setting [1]) were < 500 nM and 500 to 5000 nM, respectively.

As to `C/C(=C\c1ccc2c(c1)N(S(=O)(=O)c1cccc(C(F)(F)F)c1)C[C@H](CC(C)(C)O)O2)c1c(F)cccc1Cl` [Example 121A, (S,E)-1-(6-(2-(2-chloro-6-fluorophenyl)prop-1-en-1-yl)-4-((3-(trifluoromethyl)-phenyl)sulfonyl)-3,4-dihydro-2H-benzo[b][1,4]oxazin-2-yl)-2-methylpropan-2-ol], at RORγ-LBD (RORγ-LBD TR-FRET assay), the EC50 was < 500 nM and the “TR-FRET Assay Max Response” value is reported as “*** (a value in the range of greater than 150 to 200)”. Moreover, at Gal4-RORγ-LBD (setting [2]), the EC50 was < 500 nM and the “Gal4-RORγ Assay Max Response” value is reported as “** (a value in the range of greater than 90 to 150)”.

For the compound `CCn1cc(S(=O)(=O)N2C[C@H]([C@@H](C)NS(C)(=O)=O)Oc3ccc(/C=C(\C)c4c(F)cccc4Cl)cc32)c(Cl)n1` [Example 104, N—((R)-1-((R)-4-((3-Chloro-1-ethyl-1H-pyrazol-4-yl)sulfonyl)-6-((E)-2-(2-chloro-6-fluorophenyl)prop-1-en-1-yl)-3,4-dihydro-2H-benzo[b][1,4]oxazin-2-yl)ethyl)methanesulfonamide], at RORγ-LBD (RORγ-LBD TR-FRET assay), the EC50 is < 500 nM and the “TR-FRET Assay Max Response” value was “*** (a value in the range of greater than 150 to 200)”. Besides, on Gal4-RORγ-LBD (setting [2]), the EC50 is > 10000 nM.

Broadly, the EC50 is the concentration that produces a half-maximal response.

Values taken from patent publication US9896441B2 (Lycera Corporation, priority 2014, dated 2018).
